Assay results from US10172868B2, “Substituted quinazolines for inhibiting kinase activity” (NeuPharma, Inc., priority 2013, dated 2019).

Columns and labels:
[1] = target: BTK (Homo sapiens (Human), UniProt Q06187); assay: Z'-LYTE kinase inhibition assay, BTK; assay type: biochemical; details: for inhibition at 0.041 µM: compound at 0.041 μM, read-out: % inhibition against BTK
Description: Inhibitory activities of compounds against BTK, EGFR and EGFR mutants (EGFR L858R, EGFR T790M, EGFR L858R/T790M), FGFR1, FGFR2, JAK2, JAK3 and KDR were measured by Invitrogen using Z'-LYTE® Method as briefly described in the following.
Test Compounds are screened in 1% DMSO (final) in the well. For 10 point titrations, 3-fold serial dilutions are conducted from the starting concentration. All ATP Solutions are diluted to a 4× working concentration in Kinase Buffer (50 mM HEPES pH 7.5, 0.01% BRIJ-35, 10 mM MgCl2, 1 mM EGTA). Peptide/Kinase Mixtures are diluted to a 2× working concentration in the appropriate Kinase Buffers as described below.
(v) Peptide/Kinase Mixtures for Measurement of BTK:
The 2×BTK/Tyr 01 mixture is prepared in 50 mM HEPES pH 7.5. 0.01% BRIJ-35, 10 mM MgCl2, 1 mM EGTA.
The mixture is then incubated for another 60-minute at room temperature for development reaction. Finally fluorescence is read by plate reader.
To determine IC50 of a compound against EGFR, EGFR mutant and other kinases, a series of concentrations of the compound were tested for the inhibition. […] The scale utilized in Table 4 is as follows: +++ less than 100 nM, ++ 100-500 nM and + greater than 500 nM.

[2] = target: EGFR (ErbB1) T790M L858R (Homo sapiens (Human), UniProt P00533, L858R/T790M); assay: Z'-LYTE kinase inhibition assay, EGFR L858R/T790M; assay type: biochemical; details: for IC50: read-out: IC50 against EGFR L858R/T790M; for inhibition at 1 µM: read-out: % inhibition against EGFR L858R/T790M (Compound at 1 μM); for inhibition at 0.0137 µM: read-out: % inhibition against EGFR L858R/T790M (Compound at 0.0137 μM)
Chain of EGFR (ErbB1) T790M L858R (P00533 25-1210 T790M/L858R): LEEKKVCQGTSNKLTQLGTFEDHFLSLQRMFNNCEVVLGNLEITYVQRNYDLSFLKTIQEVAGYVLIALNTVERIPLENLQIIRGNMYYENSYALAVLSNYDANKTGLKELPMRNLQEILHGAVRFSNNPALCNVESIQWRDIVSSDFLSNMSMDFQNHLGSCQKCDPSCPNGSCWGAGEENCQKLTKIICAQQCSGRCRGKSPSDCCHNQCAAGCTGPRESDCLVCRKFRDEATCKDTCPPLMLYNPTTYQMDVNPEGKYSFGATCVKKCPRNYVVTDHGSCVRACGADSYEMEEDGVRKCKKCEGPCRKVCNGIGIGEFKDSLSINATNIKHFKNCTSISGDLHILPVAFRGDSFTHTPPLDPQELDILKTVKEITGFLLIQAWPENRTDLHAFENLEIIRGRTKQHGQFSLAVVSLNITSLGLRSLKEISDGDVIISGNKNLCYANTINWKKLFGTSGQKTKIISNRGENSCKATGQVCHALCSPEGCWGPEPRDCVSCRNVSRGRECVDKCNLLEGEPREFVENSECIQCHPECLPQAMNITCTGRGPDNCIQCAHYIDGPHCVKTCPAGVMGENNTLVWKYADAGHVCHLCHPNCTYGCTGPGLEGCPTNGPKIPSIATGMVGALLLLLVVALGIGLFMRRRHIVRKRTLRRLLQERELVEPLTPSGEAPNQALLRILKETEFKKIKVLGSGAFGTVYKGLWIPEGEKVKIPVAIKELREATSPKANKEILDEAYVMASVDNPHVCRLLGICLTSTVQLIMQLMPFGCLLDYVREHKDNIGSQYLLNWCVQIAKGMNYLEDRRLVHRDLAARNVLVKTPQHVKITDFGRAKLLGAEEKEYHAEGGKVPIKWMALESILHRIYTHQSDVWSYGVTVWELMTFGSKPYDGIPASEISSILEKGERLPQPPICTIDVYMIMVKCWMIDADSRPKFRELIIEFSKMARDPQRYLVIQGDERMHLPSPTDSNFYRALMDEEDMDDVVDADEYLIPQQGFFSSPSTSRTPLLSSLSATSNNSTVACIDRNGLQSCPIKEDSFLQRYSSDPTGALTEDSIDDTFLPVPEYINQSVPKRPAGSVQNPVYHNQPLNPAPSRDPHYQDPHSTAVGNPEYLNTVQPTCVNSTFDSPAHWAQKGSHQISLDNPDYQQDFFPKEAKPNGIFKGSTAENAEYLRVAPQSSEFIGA
In short: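 IC50 taken from 10-point, 3-fold serial dilutions tested in 1% DMSO. The mutant kinase and peptide were prepared in HEPES pH 6.5 buffer with BRIJ-35, MgCl2, EGTA and NaN3, then reacted with ATP for 1 h at room temperature. Development reagent was added for a further hour before the fluorescence readout.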

[3] = system: H1975 cells; assay: Inhibition of cancer cell growth, MTT assay, H1975; details: Homo sapiens, NCI-H1975, 72 h, read-out: IC50 in H1975 cells
[4] = system: A431 cells; assay: cells; details: Homo sapiens, A-431, 72 h, read-out: IC50 in A431 cells
Description: (§1) Taxol (as a positive control. Sigma) and compounds were dissolved in DMSO (Sigma), and the final concentration of DMSO in the medium was 1%. Tumor cells were plated in 96-well plates at densities of about 4000 cells/well of a 96-well plate and allowed to adhere/grow for 24 h. They were then treated with various concentrations of drug for 72 h, 3-(4,5-Dimethylthiazol-2-yl)-2,5-diphenyltetrazolium bromide (MTT, Sigma) was used to determine the number of viable cells at the time of compound addition and the number of cells remaining after 72 h compound exposure. The number of cells remaining after 72 h was compared to the number of viable cells at the time of compound addition by measuring the absorbance at 570 nm, allowing for the calculation of growth inhibition.
(§2) All concentrations of compounds were tested in triplicate and controls were averaged over 4 wells. IC50 was calculated by plotting the concentration of compound vs the percentage of inhibition in treated wells using GraphPad Prism 5.
(§3) The scale utilized in Tables 5 is as follows: +++ less than 100 nM; ++ between 100 nM and 500 nM; and + greater than 500 nM.

[5] = system: HCC827 cells; assay: cells; details: Homo sapiens, HCC827, 72 h, read-out: IC50 in HCC827 cells
Description: as §1, §2, §3

[6] = target: EGFR (ErbB1) (Homo sapiens (Human), UniProt P00533); assay: Z'-LYTE kinase inhibition assay, EGFR; assay type: biochemical; details: for inhibition at 0.041 µM: read-out: % inhibition against EGFR (Compound at 0.041 μM)
Chain of EGFR (ErbB1) (P00533 25-1210): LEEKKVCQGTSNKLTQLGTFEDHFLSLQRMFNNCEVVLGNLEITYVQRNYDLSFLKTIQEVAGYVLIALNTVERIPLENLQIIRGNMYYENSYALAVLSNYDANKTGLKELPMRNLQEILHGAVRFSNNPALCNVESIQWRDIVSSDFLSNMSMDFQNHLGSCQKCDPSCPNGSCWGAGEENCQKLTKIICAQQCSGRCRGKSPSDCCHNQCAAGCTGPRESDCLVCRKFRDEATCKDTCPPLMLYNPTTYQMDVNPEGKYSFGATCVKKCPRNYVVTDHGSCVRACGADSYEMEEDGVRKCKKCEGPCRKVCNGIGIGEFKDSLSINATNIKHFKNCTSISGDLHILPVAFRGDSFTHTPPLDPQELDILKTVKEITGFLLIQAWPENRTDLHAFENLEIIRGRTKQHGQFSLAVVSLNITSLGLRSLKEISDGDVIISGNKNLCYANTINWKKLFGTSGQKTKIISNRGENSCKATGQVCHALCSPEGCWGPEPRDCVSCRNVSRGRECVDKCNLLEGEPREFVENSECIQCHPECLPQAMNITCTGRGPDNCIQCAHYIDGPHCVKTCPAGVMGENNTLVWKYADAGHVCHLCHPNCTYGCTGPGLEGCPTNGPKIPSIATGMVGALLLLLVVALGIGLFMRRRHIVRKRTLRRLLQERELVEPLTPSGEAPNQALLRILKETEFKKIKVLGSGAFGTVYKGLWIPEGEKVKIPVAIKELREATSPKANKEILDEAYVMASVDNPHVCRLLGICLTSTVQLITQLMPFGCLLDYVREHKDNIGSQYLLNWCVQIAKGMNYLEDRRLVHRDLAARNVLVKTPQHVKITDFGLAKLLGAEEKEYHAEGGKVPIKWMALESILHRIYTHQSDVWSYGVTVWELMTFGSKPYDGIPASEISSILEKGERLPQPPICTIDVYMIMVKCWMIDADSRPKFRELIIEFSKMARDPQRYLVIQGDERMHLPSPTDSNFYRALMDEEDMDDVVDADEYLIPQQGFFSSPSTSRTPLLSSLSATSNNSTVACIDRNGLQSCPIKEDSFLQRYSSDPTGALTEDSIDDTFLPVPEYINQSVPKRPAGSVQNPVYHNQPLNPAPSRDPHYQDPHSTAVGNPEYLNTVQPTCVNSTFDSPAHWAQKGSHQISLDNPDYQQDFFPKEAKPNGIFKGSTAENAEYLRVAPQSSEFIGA
In short: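 IC50 values derived from 10-point, 3-fold compound dilution series (1% DMSO final) using Z'-LYTE fluorescence readout after 60-min development. Reaction: EGFR (1.1-5.25 ng) with 2 μM peptide, 60 min at room temperature in HEPES pH 7.5 buffer containing MgCl2, MnCl2, EGTA, DTT and BRIJ-35.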

[7] = system: H3255 cells; assay: Inhibition of cancer cell growth, MTT assay, H3255; details: Homo sapiens, NCI-H3255, 72 h, read-out: IC50 in H3255 cells
Description: Inhibition of cell growth by compounds was measured using MTT assay (Mosmann, T., Journal of Immunological Methods, 1983, 65, 55-63). Tumor cell lines were purchased from ATCC (American Type Culture Collection, Manassas, Va.). All cell lines were maintained in RPMI 1640 (Hyclone) supplemented with 10% fetal bovine serum (FBS, Hyclone), glutamine (2 mM, Hyclone), and antibiotics (penicillin 100 U/mL and streptomycin 50 μg/mL) at 37° C. in a humidified atmosphere of 5% CO2 in air. Taxol (as a positive control. Sigma) and compounds were dissolved in DMSO (Sigma), and the final concentration of DMSO in the medium was 1%. Tumor cells were plated in 96-well plates at densities of about 4000 cells/well of a 96-well plate and allowed to adhere/grow for 24 h. They were then treated with various concentrations of drug for 72 h, 3-(4,5-Dimethylthiazol-2-yl)-2,5-diphenyltetrazolium bromide (MTT, Sigma) was used to determine the number of viable cells at the time of compound addition and the number of cells remaining after 72 h compound exposure. The number of cells remaining after 72 h was compared to the number of viable cells at the time of compound addition by measuring the absorbance at 570 nm, allowing for the calculation of growth inhibition.
as §2

Chain of BTK (Q06187 whole entry): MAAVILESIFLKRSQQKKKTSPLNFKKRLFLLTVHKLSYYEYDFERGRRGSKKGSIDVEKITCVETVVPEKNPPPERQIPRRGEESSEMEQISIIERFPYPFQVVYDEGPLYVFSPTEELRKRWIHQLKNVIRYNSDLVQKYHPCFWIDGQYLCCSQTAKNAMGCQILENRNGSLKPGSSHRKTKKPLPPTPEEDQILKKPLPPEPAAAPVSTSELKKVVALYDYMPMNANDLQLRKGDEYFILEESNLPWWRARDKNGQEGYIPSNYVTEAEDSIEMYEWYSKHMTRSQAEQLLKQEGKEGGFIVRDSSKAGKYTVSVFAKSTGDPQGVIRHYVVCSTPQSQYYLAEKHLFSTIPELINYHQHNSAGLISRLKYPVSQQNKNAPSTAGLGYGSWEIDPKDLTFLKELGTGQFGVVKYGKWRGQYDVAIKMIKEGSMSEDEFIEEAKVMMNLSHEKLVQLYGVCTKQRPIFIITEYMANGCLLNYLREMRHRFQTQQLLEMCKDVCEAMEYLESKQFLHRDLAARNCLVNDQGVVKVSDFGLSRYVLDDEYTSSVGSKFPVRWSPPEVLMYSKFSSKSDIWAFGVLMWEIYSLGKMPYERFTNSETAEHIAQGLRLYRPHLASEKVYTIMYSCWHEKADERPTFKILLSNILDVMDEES

SMILES	IC50 [2] [µM]	IC50 [3] [µM]	IC50 [4] [µM]	inhibition at 1 µM [2] [%]	IC50 [5] [µM]	inhibition at 1 µM ([6]; read-out: % inhibition against EGFR (Compound at 1 μM)) [%]	IC50 [7] [µM]	inhibition at 0.041 µM [1] [%]	inhibition at 0.0137 µM [2] [%]	inhibition at 0.041 µM [6] [%]	IC50 ([1]; read-out: IC50 against BTK) [µM]
C=CC(=O)Nc1cccc(-c2cccc3cnc(Nc4ccc(OCCO)cc4)nc23)c1 [Example C108, N-(3-(2-((4-(2-hydroxyethoxy)phenyl)amino)quinazolin-8-yl)phenyl)acrylamide]	< 0.1	< 0.1	> 0.5								< 0.1
Fc1ccc(OCCN2CCOCC2)cc1-c1cccc2cnc(Nc3ccc(N4CCNCC4)cc3)nc12 [Example C028, 8-(2-fluoro-5-(2-morpholinoethoxy)phenyl)-N-(4-(piperazin-1-yl)phenyl)quinazolin-2-amine]		> 0.5		> 50	> 0.5						
c1ccc(-c2cccc3cnc(Nc4ccc(N5CCNCC5)cc4)nc23)cc1 [Example C030, 8-phenyl-N-(4-(piperazin-1-yl)phenyl)quinazolin-2-amine]		0.1 to 0.5		> 50	0.1 to 0.5	> 50					
C=CC(=O)Nc1cccc(-c2cccc3cnc(Nc4cc(F)c(N5CCN(CCO)CC5)cc4F)nc23)c1 [Example C162, N-(3-(2-((2,5-difluoro-4-(4-(2-hydroxyethyl)piperazin-1-yl)phenyl)amino)quinazolin-8-yl)phenyl)acrylamide]		0.1 to 0.5					> 0.5				
C=CC(=O)Nc1cccc(-c2cccc3cnc(Nc4ccc(N5CCNC(=O)C5)cc4)nc23)c1 [Example C117, N-(3-(2-((4-(3-oxopiperazin-1-yl)phenyl)amino)quinazolin-8-yl)phenyl)acrylamide]		0.1 to 0.5						> 50	< 50	< 50	
Fc1ccc(Cl)cc1-c1cccc2cnc(Nc3ccc(N4CCNCC4)cc3)nc12 [Example C024, 8-(5-chloro-2-fluorophenyl)-N-(4-(piperazin-1-yl)phenyl)quinazolin-2-amine]		> 0.5		> 50	> 0.5						
C=CC(=O)Nc1cccc(-c2c(CO)ccc3cnc(Nc4ccc(N5CCN(C)CC5)cc4)nc23)c1 [Example C037, N-(3-(7-(hydroxymethyl)-2-((4-(4-methylpiperazin-1-yl)phenyl)amino)quinazolin-8-yl)phenyl)acrylamide]		< 0.1	< 0.1		< 0.1					> 50	
C=CC(=O)Nc1cccc(-c2cccc3cnc(Nc4ccc(NC5CCOCC5)cc4)nc23)c1 [Example C111, N-(3-(2-((4-((tetrahydro-2H-pyran-4-yl)amino)phenyl)amino)quinazolin-8-yl)phenyl)acrylamide]		< 0.1						> 50	< 50	< 50	
C=CC(=O)Nc1cccc(-c2cccc3cnc(Nc4ccc(OCCN(C)C)cc4)nc23)c1 [Example C110, N-(3-(2-((4-(2-(dimethylamino)ethoxy)phenyl)amino)quinazolin-8-yl)phenyl)acrylamide]	< 0.1	< 0.1	< 0.1					> 50	> 50	< 50	
C=CC(=O)Nc1cccc(-c2cccc3cnc(Nc4ccc(OC5CCN(C)CC5)cc4)nc23)c1 [Example C126, N-(3-(2-((4-((1-methylpiperidin-4-yl)oxy)phenyl)amino)quinazolin-8-yl)phenyl)acrylamide]	< 0.1	< 0.1	< 0.1					> 50	> 50	> 50	
C=CC(=O)Nc1cccc(-c2cccc3cnc(Nc4ccc(N[C@H]5CCOC5)cc4)nc23)c1 [Example C114, (S)-N-(3-(2-((4-((tetrahydrofuran-3-yl)amino)phenyl)amino)quinazolin-8-yl)phenyl)acrylamide]		< 0.1						> 50	< 50	< 50	
C=CC(=O)Nc1cccc(-c2cccc3cnc(Nc4ccc(NC5CCN(C(C)=O)CC5)cc4)nc23)c1 [Example C120, N-(3-(2-((4-((1-acetylpiperidin-4-yl)amino)phenyl)amino)quinazolin-8-yl)phenyl)acrylamide]		< 0.1						> 50	< 50	< 50	
C=CC(=O)Nc1cccc(-c2cccc3cnc(Nc4ccc(N5CCN(C)C(=O)C5)cc4)nc23)c1 [Example C116, N-(3-(2-((4-(4-methyl-3-oxopiperazin-1-yl)phenyl)amino)quinazolin-8-yl)phenyl)acrylamide]		0.1 to 0.5						> 50	< 50	< 50	

Further lines, with some results ahead:

IC50 [2] [µM]	IC50 [3] [µM]	IC50 [4] [µM]	inhibition at 1 µM [2] [%]	IC50 [5] [µM]	inhibition at 1 µM ([6]; read-out: % inhibition against EGFR (Compound at 1 μM)) [%]	IC50 [7] [µM]	inhibition at 0.041 µM [1] [%]	inhibition at 0.0137 µM [2] [%]	inhibition at 0.041 µM [6] [%]	SMILES	IC50 ([1]; read-out: IC50 against BTK) [µM]
< 0.1	< 0.1	< 0.1					> 50	> 50	> 50	C=CC(=O)Nc1cccc(-c2cccc3cnc(Nc4ccc(O[C@@H]5CCN(C)C5)cc4)nc23)c1 [Example C123, (R)-N-(3-(2-((4-((1-methylpyrrolidin-3-yl)oxy)phenyl)amino)quinazolin-8-yl)phenyl)acrylamide]	
	< 0.1			< 0.1						C=CC(=O)Nc1cccc(-c2cccc3cnc(Nc4ccc(N5CCN(CC)CC5)cc4)nc23)c1F [Example C038, N-(3-(2-((4-(4-ethylpiperazin-1-yl)phenyl)amino)quinazolin-8-yl)-2-fluorophenyl)acrylamide]	
	< 0.1						> 50	< 50	< 50	C=CC(=O)Nc1cccc(-c2cccc3cnc(Nc4ccc(O[C@H]5CCOC5)cc4)nc23)c1 [Example C113, (S)-N-(3-(2-((4-((tetrahydrofuran-3-yl)oxy)phenyl)amino)quinazolin-8-yl)phenyl)acrylamide]	
< 0.1	< 0.1	0.1 to 0.5					> 50	> 50	< 50	C=CC(=O)Nc1cccc(-c2cccc3cnc(Nc4ccc(O[C@H]5CCN(C)C5)cc4)nc23)c1 [Example C121, (S)-N-(3-(2-((4-((1-methylpyrrolidin-3-yl)oxy)phenyl)amino)quinazolin-8-yl)phenyl)acrylamide]	
< 0.1	< 0.1	0.1 to 0.5					> 50	> 50	< 50	C=CC(=O)Nc1cccc(-c2cccc3cnc(Nc4ccc(OCCN5CCC5)cc4)nc23)c1 [Example C109, N-(3-(2-((4-(2-(azetidin-1-yl)ethoxy)phenyl)amino)quinazolin-8-yl)phenyl)acrylamide]	
	< 0.1						> 50	< 50	< 50	C=CC(=O)Nc1cccc(-c2cccc3cnc(Nc4ccc(NC5CN(C(C)=O)C5)cc4)nc23)c1 [Example C124, N-(3-(2-((4-((1-acetylazetidin-3-yl)amino)phenyl)amino)quinazolin-8-yl)phenyl)acrylamide]	
	< 0.1						> 50	< 50	< 50	C=CC(=O)Nc1cccc(-c2cccc3cnc(Nc4ccc(OC5CCOCC5)cc4)nc23)c1 [Example C112, N-(3-(2-((4-((tetrahydro-2H-pyran-4-yl)oxy)phenyl)amino)quinazolin-8-yl)phenyl)acrylamide]	
